Assay: xn = mol fraction of the nth substance listed
Settings: 100 kPa, Liquid; for mass density: Vibrating tube method; for speed of sound: Frequency=5 MHz, Pulse-echo method

OCCOCCOCCO [triethylene glycol] + O
Settings | mass density [kg/m3] | speed of sound [m/s]
278.15 K, x1 = 0.0107 | 1013.31 | –
278.15 K, x1 = 0.02047 | 1024.39 | –
278.15 K, x1 = 0.03972 | 1043.4 | –
278.15 K, x1 = 0.04979 | 1051.97 | –
278.15 K, x1 = 0.06996 | 1066.64 | –
278.15 K, x1 = 0.09424 | 1080.57 | –
278.15 K, x1 = 0.1481 | 1100.99 | –
278.15 K, x1 = 0.2006 | 1112.25 | –
278.15 K, x1 = 0.2502 | 1118.67 | –
278.15 K, x1 = 0.2988 | 1122.73 | –
278.15 K, x1 = 0.3492 | 1125.61 | –
278.15 K, x1 = 0.3925 | 1127.4 | –
278.15 K, x1 = 0.4502 | 1129.18 | –
278.15 K, x1 = 0.4877 | 1130.08 | –
278.15 K, x1 = 0.5004 | 1130.35 | –
278.15 K, x1 = 0.5739 | 1131.64 | –
278.15 K, x1 = 0.58 | 1131.73 | –
278.15 K, x1 = 0.6465 | 1132.58 | –
278.15 K, x1 = 0.651 | 1132.63 | –
278.15 K, x1 = 0.7008 | 1133.14 | –
278.15 K, x1 = 0.7471 | 1133.54 | –
278.15 K, x1 = 0.7677 | 1133.7 | –
278.15 K, x1 = 0.82 | 1134.08 | –
278.15 K, x1 = 0.8623 | 1134.35 | –
278.15 K, x1 = 0.8792 | 1134.45 | –
278.15 K, x1 = 0.8975 | 1134.56 | –
278.15 K, x1 = 0.9203 | 1134.69 | –
278.15 K, x1 = 0.9514 | 1134.86 | –
278.15 K, x1 = 0.9692 | 1134.96 | –
278.15 K, x1 = 1 | 1135.14 | –
283.15 K, x1 = 0.0107 | 1012.65 | –
283.15 K, x1 = 0.02047 | 1023.4 | –
283.15 K, x1 = 0.03972 | 1041.83 | –
283.15 K, x1 = 0.04979 | 1050.13 | –
283.15 K, x1 = 0.06996 | 1064.35 | –
283.15 K, x1 = 0.09424 | 1077.85 | –
283.15 K, x1 = 0.1481 | 1097.71 | –
283.15 K, x1 = 0.2006 | 1108.7 | –
283.15 K, x1 = 0.2502 | 1115 | –
283.15 K, x1 = 0.2988 | 1119.01 | –
283.15 K, x1 = 0.3492 | 1121.86 | –
283.15 K, x1 = 0.3925 | 1123.64 | –
283.15 K, x1 = 0.4502 | 1125.41 | –
283.15 K, x1 = 0.4877 | 1126.3 | –
283.15 K, x1 = 0.5004 | 1126.57 | –
283.15 K, x1 = 0.5739 | 1127.85 | –
283.15 K, x1 = 0.58 | 1127.94 | –
283.15 K, x1 = 0.6465 | 1128.79 | –
283.15 K, x1 = 0.651 | 1128.84 | –
283.15 K, x1 = 0.7008 | 1129.34 | –
283.15 K, x1 = 0.7471 | 1129.73 | –
283.15 K, x1 = 0.7677 | 1129.89 | –
283.15 K, x1 = 0.82 | 1130.26 | –
283.15 K, x1 = 0.8623 | 1130.52 | –
283.15 K, x1 = 0.8792 | 1130.62 | –
283.15 K, x1 = 0.8975 | 1130.73 | –
283.15 K, x1 = 0.9203 | 1130.86 | –
283.15 K, x1 = 0.9514 | 1131.03 | –
283.15 K, x1 = 0.9692 | 1131.12 | –
283.15 K, x1 = 1 | 1131.29 | –
288.15 K, x1 = 0.000601 | – | 1469.7
288.15 K, x1 = 0.001928 | – | 1476.6
288.15 K, x1 = 0.00461 | – | 1490.1
288.15 K, x1 = 0.008532 | – | 1508.9
288.15 K, x1 = 0.0107 | 1011.72 | –
288.15 K, x1 = 0.01366 | – | 1532
288.15 K, x1 = 0.01989 | – | 1557.7
288.15 K, x1 = 0.02047 | 1022.17 | –
288.15 K, x1 = 0.02548 | – | 1578.7
288.15 K, x1 = 0.03449 | – | 1609.1
288.15 K, x1 = 0.03972 | 1040.07 | –
288.15 K, x1 = 0.04517 | – | 1639.9
288.15 K, x1 = 0.04979 | 1048.13 | –
288.15 K, x1 = 0.05131 | – | 1655.2
288.15 K, x1 = 0.05713 | – | 1668.3
288.15 K, x1 = 0.06261 | – | 1679.5
288.15 K, x1 = 0.0692 | – | 1691.5
288.15 K, x1 = 0.06996 | 1061.93 | –
288.15 K, x1 = 0.07424 | – | 1699.8
288.15 K, x1 = 0.08016 | – | 1708.5
288.15 K, x1 = 0.08433 | – | 1714.1
288.15 K, x1 = 0.08832 | – | 1719
288.15 K, x1 = 0.09298 | – | 1724.2
288.15 K, x1 = 0.09424 | 1075.05 | –
288.15 K, x1 = 0.09657 | – | 1727.8
288.15 K, x1 = 0.1007 | – | 1731.7
288.15 K, x1 = 0.1021 | – | 1732.9
288.15 K, x1 = 0.1045 | – | 1734.9
288.15 K, x1 = 0.1091 | – | 1738.4
288.15 K, x1 = 0.1208 | – | 1745.7
288.15 K, x1 = 0.1237 | – | 1747.2
288.15 K, x1 = 0.1281 | – | 1749.1
288.15 K, x1 = 0.1302 | – | 1750
288.15 K, x1 = 0.133 | – | 1751
288.15 K, x1 = 0.1394 | – | 1753
288.15 K, x1 = 0.1441 | – | 1754.2
288.15 K, x1 = 0.1474 | – | 1754.8
288.15 K, x1 = 0.1481 | 1094.39 | –
288.15 K, x1 = 0.1578 | – | 1756.3
288.15 K, x1 = 0.1678 | – | 1756.8
288.15 K, x1 = 0.1774 | – | 1756.7
288.15 K, x1 = 0.1904 | – | 1755.7
288.15 K, x1 = 0.2006 | 1105.14 | –
288.15 K, x1 = 0.2055 | – | 1753.5
288.15 K, x1 = 0.2329 | – | 1748
288.15 K, x1 = 0.2502 | 1111.33 | –
288.15 K, x1 = 0.2559 | – | 1742.5
288.15 K, x1 = 0.2967 | – | 1731.9
288.15 K, x1 = 0.2988 | 1115.27 | –
288.15 K, x1 = 0.3235 | – | 1725.1
288.15 K, x1 = 0.3492 | 1118.09 | –
288.15 K, x1 = 0.3699 | – | 1714
288.15 K, x1 = 0.3925 | 1119.86 | –
288.15 K, x1 = 0.4089 | – | 1705.2
288.15 K, x1 = 0.4502 | 1121.62 | –
288.15 K, x1 = 0.4877 | 1122.51 | –
288.15 K, x1 = 0.5004 | 1122.77 | –
288.15 K, x1 = 0.5029 | – | 1686.5
288.15 K, x1 = 0.5739 | 1124.05 | –
288.15 K, x1 = 0.58 | 1124.13 | –
288.15 K, x1 = 0.6337 | – | 1667
288.15 K, x1 = 0.6465 | 1124.97 | –
288.15 K, x1 = 0.651 | 1125.02 | –
288.15 K, x1 = 0.7008 | 1125.51 | –
288.15 K, x1 = 0.745 | – | 1657.9
288.15 K, x1 = 0.7471 | 1125.9 | –
288.15 K, x1 = 0.7677 | 1126.06 | –
288.15 K, x1 = 0.82 | 1126.42 | –
288.15 K, x1 = 0.8623 | 1126.68 | –
288.15 K, x1 = 0.8792 | 1126.78 | –
288.15 K, x1 = 0.8795 | – | 1649.6
288.15 K, x1 = 0.8975 | 1126.88 | –
288.15 K, x1 = 0.9203 | 1127.01 | –
288.15 K, x1 = 0.9514 | 1127.17 | –
288.15 K, x1 = 0.9612 | – | 1645.9
288.15 K, x1 = 0.9692 | 1127.27 | –
288.15 K, x1 = 1 | 1127.43 | 1643.9
293.15 K, x1 = 0.000681 | – | 1485.6
293.15 K, x1 = 0.002463 | – | 1494
293.15 K, x1 = 0.005001 | – | 1505.7
293.15 K, x1 = 0.007787 | – | 1518
293.15 K, x1 = 0.01463 | – | 1546.1
293.15 K, x1 = 0.02045 | – | 1567.9
293.15 K, x1 = 0.0276 | – | 1592.1
293.15 K, x1 = 0.03276 | – | 1608
293.15 K, x1 = 0.0418 | – | 1632.7
293.15 K, x1 = 0.04898 | – | 1649.9
293.15 K, x1 = 0.05561 | – | 1664
293.15 K, x1 = 0.06315 | – | 1678
293.15 K, x1 = 0.0678 | – | 1685.8
293.15 K, x1 = 0.0736 | – | 1694.6
293.15 K, x1 = 0.08161 | – | 1705.1
293.15 K, x1 = 0.08886 | – | 1713.2
293.15 K, x1 = 0.09701 | – | 1721
293.15 K, x1 = 0.1043 | – | 1726.7
293.15 K, x1 = 0.1091 | – | 1730
293.15 K, x1 = 0.1142 | – | 1733
293.15 K, x1 = 0.12 | – | 1735.9
293.15 K, x1 = 0.1325 | – | 1740.6
293.15 K, x1 = 0.1374 | – | 1741.9
293.15 K, x1 = 0.1445 | – | 1743.3

Source: the NIST ThermoML archive (doi:10.1016/j.jct.2015.05.024)
